Conditions: Liquid; for viscosity: Concentric cylinders viscometry

CCCCn1cc[n+](C)c1.COP(=O)([O-])OC [1-butyl-3-methyl-1H-imidazolium dimethylphosphate]
101.33 kPa
Conditions | viscosity [mPa·s]
293.15 K | 760.4
303.15 K | 369.3
313.15 K | 198.8
323.15 K | 116.4
333.15 K | 72.97
343.15 K | 48.45
353.15 K | 33.76
363.15 K | 24.48
373.15 K | 18.37

Conditions | mass density [kg/m3]
293.15 K, 101.33 kPa, Vibrating tube method | 1167.3
303.15 K, 101.33 kPa, Vibrating tube method | 1160.2
311.4 K, 10000 kPa, Bellows volumetry | 1159.3
311.4 K, 20000 kPa, Bellows volumetry | 1163.7
311.4 K, 30000 kPa, Bellows volumetry | 1168.1
311.4 K, 40000 kPa, Bellows volumetry | 1172.2
311.4 K, 50000 kPa, Bellows volumetry | 1176.4
311.4 K, 60000 kPa, Bellows volumetry | 1180.3
311.4 K, 70000 kPa, Bellows volumetry | 1183.9
311.4 K, 80000 kPa, Bellows volumetry | 1187.7
311.4 K, 90000 kPa, Bellows volumetry | 1191.3
311.4 K, 100000 kPa, Bellows volumetry | 1194.7
311.4 K, 110000 kPa, Bellows volumetry | 1198.1
311.4 K, 120000 kPa, Bellows volumetry | 1201.4
311.4 K, 130000 kPa, Bellows volumetry | 1204.7
311.4 K, 140000 kPa, Bellows volumetry | 1207.7
311.4 K, 150000 kPa, Bellows volumetry | 1210.8
311.4 K, 160000 kPa, Bellows volumetry | 1213.7
311.4 K, 170000 kPa, Bellows volumetry | 1216.7
311.4 K, 180000 kPa, Bellows volumetry | 1219.6
311.4 K, 190000 kPa, Bellows volumetry | 1222.5
311.4 K, 200000 kPa, Bellows volumetry | 1225.3
313.15 K, 101.33 kPa, Vibrating tube method | 1153.4
323.15 K, 101.33 kPa, Vibrating tube method | 1146.8
331.3 K, 10000 kPa, Bellows volumetry | 1146.1
331.3 K, 20000 kPa, Bellows volumetry | 1150.8
331.3 K, 30000 kPa, Bellows volumetry | 1155.4
331.3 K, 40000 kPa, Bellows volumetry | 1159.8
331.3 K, 50000 kPa, Bellows volumetry | 1164.2
331.3 K, 60000 kPa, Bellows volumetry | 1168.3
331.3 K, 70000 kPa, Bellows volumetry | 1172.1
331.3 K, 80000 kPa, Bellows volumetry | 1176
331.3 K, 90000 kPa, Bellows volumetry | 1179.6
331.3 K, 100000 kPa, Bellows volumetry | 1183.1
331.3 K, 110000 kPa, Bellows volumetry | 1186.6
331.3 K, 120000 kPa, Bellows volumetry | 1190.1
331.3 K, 130000 kPa, Bellows volumetry | 1193.4
331.3 K, 140000 kPa, Bellows volumetry | 1196.6
331.3 K, 150000 kPa, Bellows volumetry | 1199.8
331.3 K, 160000 kPa, Bellows volumetry | 1202.9
331.3 K, 170000 kPa, Bellows volumetry | 1205.9
331.3 K, 180000 kPa, Bellows volumetry | 1208.9
331.3 K, 190000 kPa, Bellows volumetry | 1212.6
331.3 K, 200000 kPa, Bellows volumetry | 1214.8
333.15 K, 101.33 kPa, Vibrating tube method | 1140.3
343.15 K, 101.33 kPa, Vibrating tube method | 1133.7
351.6 K, 10000 kPa, Bellows volumetry | 1133.7
351.6 K, 20000 kPa, Bellows volumetry | 1138.4
351.6 K, 30000 kPa, Bellows volumetry | 1143.3
351.6 K, 40000 kPa, Bellows volumetry | 1147.9
351.6 K, 50000 kPa, Bellows volumetry | 1152.4
351.6 K, 60000 kPa, Bellows volumetry | 1156.7
351.6 K, 70000 kPa, Bellows volumetry | 1160.9
351.6 K, 80000 kPa, Bellows volumetry | 1164.9
351.6 K, 90000 kPa, Bellows volumetry | 1168.6
351.6 K, 100000 kPa, Bellows volumetry | 1172.3
351.6 K, 110000 kPa, Bellows volumetry | 1175.9
351.6 K, 120000 kPa, Bellows volumetry | 1179.7
351.6 K, 130000 kPa, Bellows volumetry | 1183.1
351.6 K, 140000 kPa, Bellows volumetry | 1186.4
351.6 K, 150000 kPa, Bellows volumetry | 1189.6
351.6 K, 160000 kPa, Bellows volumetry | 1192.8
351.6 K, 170000 kPa, Bellows volumetry | 1196.1
351.6 K, 180000 kPa, Bellows volumetry | 1199.1
351.6 K, 190000 kPa, Bellows volumetry | 1202.1
351.6 K, 200000 kPa, Bellows volumetry | 1205.1
353.15 K, 101.33 kPa, Vibrating tube method | 1127.2
363.15 K, 101.33 kPa, Vibrating tube method | 1120.7
371.6 K, 10000 kPa, Bellows volumetry | 1120.8
371.6 K, 20000 kPa, Bellows volumetry | 1126.1
371.6 K, 30000 kPa, Bellows volumetry | 1131.3
371.6 K, 40000 kPa, Bellows volumetry | 1136.2
371.6 K, 50000 kPa, Bellows volumetry | 1140.9
371.6 K, 60000 kPa, Bellows volumetry | 1145.4
371.6 K, 70000 kPa, Bellows volumetry | 1149.7
371.6 K, 80000 kPa, Bellows volumetry | 1153.9
371.6 K, 90000 kPa, Bellows volumetry | 1157.9
371.6 K, 100000 kPa, Bellows volumetry | 1161.8
371.6 K, 110000 kPa, Bellows volumetry | 1165.7
371.6 K, 120000 kPa, Bellows volumetry | 1169.4
371.6 K, 130000 kPa, Bellows volumetry | 1173.1
371.6 K, 140000 kPa, Bellows volumetry | 1176.4
371.6 K, 150000 kPa, Bellows volumetry | 1179.7
371.6 K, 160000 kPa, Bellows volumetry | 1183
371.6 K, 170000 kPa, Bellows volumetry | 1186.3
371.6 K, 180000 kPa, Bellows volumetry | 1189.4
371.6 K, 190000 kPa, Bellows volumetry | 1192.5
371.6 K, 200000 kPa, Bellows volumetry | 1195.6
373.15 K, 101.33 kPa, Vibrating tube method | 1114.2

CCn1cc[n+](C)c1.COP(=O)([O-])OC [1-ethyl-3-methylimidazolium dimethylphosphate]
101.33 kPa
Conditions | viscosity [mPa·s]
303.15 K | 186
313.15 K | 107.5
323.15 K | 67.1
333.15 K | 44.64
343.15 K | 31.27
353.15 K | 22.85
363.15 K | 17.29
373.15 K | 13.47

Conditions | mass density [kg/m3]
303.15 K, 101.33 kPa, Vibrating tube method | 1214.4
312 K, 10000 kPa, Bellows volumetry | 1212.6
312 K, 20000 kPa, Bellows volumetry | 1216.9
312 K, 30000 kPa, Bellows volumetry | 1221
312 K, 40000 kPa, Bellows volumetry | 1224.9
312 K, 50000 kPa, Bellows volumetry | 1228.8
312 K, 60000 kPa, Bellows volumetry | 1232.5
313.15 K, 101.33 kPa, Vibrating tube method | 1207.6
323.15 K, 101.33 kPa, Vibrating tube method | 1200.9
331.7 K, 10000 kPa, Bellows volumetry | 1199.7
331.7 K, 20000 kPa, Bellows volumetry | 1204.1
331.7 K, 30000 kPa, Bellows volumetry | 1208.5
331.7 K, 40000 kPa, Bellows volumetry | 1212.6
331.7 K, 50000 kPa, Bellows volumetry | 1216.6
331.7 K, 60000 kPa, Bellows volumetry | 1220.4
331.7 K, 70000 kPa, Bellows volumetry | 1224.1
331.7 K, 80000 kPa, Bellows volumetry | 1227.8
331.7 K, 90000 kPa, Bellows volumetry | 1231.3
331.7 K, 100000 kPa, Bellows volumetry | 1234.7
331.7 K, 110000 kPa, Bellows volumetry | 1238.1
331.7 K, 120000 kPa, Bellows volumetry | 1241.3
331.7 K, 130000 kPa, Bellows volumetry | 1244.5
331.7 K, 140000 kPa, Bellows volumetry | 1247.6
331.7 K, 150000 kPa, Bellows volumetry | 1250.8
331.7 K, 160000 kPa, Bellows volumetry | 1253.7
331.7 K, 170000 kPa, Bellows volumetry | 1256.7
331.7 K, 180000 kPa, Bellows volumetry | 1259.5
331.7 K, 190000 kPa, Bellows volumetry | 1262.3
331.7 K, 200000 kPa, Bellows volumetry | 1265.2
333.15 K, 101.33 kPa, Vibrating tube method | 1194.3
343.15 K, 101.33 kPa, Vibrating tube method | 1187.6
351.7 K, 10000 kPa, Bellows volumetry | 1186.8
351.7 K, 20000 kPa, Bellows volumetry | 1191.5
351.7 K, 30000 kPa, Bellows volumetry | 1196
351.7 K, 40000 kPa, Bellows volumetry | 1200.3
351.7 K, 50000 kPa, Bellows volumetry | 1204.5
351.7 K, 60000 kPa, Bellows volumetry | 1208.5
351.7 K, 70000 kPa, Bellows volumetry | 1212.4
351.7 K, 80000 kPa, Bellows volumetry | 1216.2
351.7 K, 90000 kPa, Bellows volumetry | 1219.8
351.7 K, 100000 kPa, Bellows volumetry | 1223.3
351.7 K, 110000 kPa, Bellows volumetry | 1226.9
351.7 K, 120000 kPa, Bellows volumetry | 1230.4
351.7 K, 130000 kPa, Bellows volumetry | 1233.6
351.7 K, 140000 kPa, Bellows volumetry | 1236.9
351.7 K, 150000 kPa, Bellows volumetry | 1240
351.7 K, 160000 kPa, Bellows volumetry | 1243.2
351.7 K, 170000 kPa, Bellows volumetry | 1246.2
351.7 K, 180000 kPa, Bellows volumetry | 1249.1
351.7 K, 190000 kPa, Bellows volumetry | 1252
351.7 K, 200000 kPa, Bellows volumetry | 1255
353.15 K, 101.33 kPa, Vibrating tube method | 1181.1
363.15 K, 101.33 kPa, Vibrating tube method | 1174.5
372.4 K, 10000 kPa, Bellows volumetry | 1174.1
372.4 K, 20000 kPa, Bellows volumetry | 1179
372.4 K, 30000 kPa, Bellows volumetry | 1182.8
372.4 K, 40000 kPa, Bellows volumetry | 1188.3
372.4 K, 50000 kPa, Bellows volumetry | 1192.6
372.4 K, 60000 kPa, Bellows volumetry | 1196.9
372.4 K, 70000 kPa, Bellows volumetry | 1200.9
372.4 K, 80000 kPa, Bellows volumetry | 1204.9
372.4 K, 90000 kPa, Bellows volumetry | 1208.7
372.4 K, 100000 kPa, Bellows volumetry | 1212.4
372.4 K, 110000 kPa, Bellows volumetry | 1216
372.4 K, 120000 kPa, Bellows volumetry | 1219.5
372.4 K, 130000 kPa, Bellows volumetry | 1223
372.4 K, 140000 kPa, Bellows volumetry | 1226.3
372.4 K, 150000 kPa, Bellows volumetry | 1229.6
372.4 K, 160000 kPa, Bellows volumetry | 1232.8
372.4 K, 170000 kPa, Bellows volumetry | 1235.9
372.4 K, 180000 kPa, Bellows volumetry | 1238.9
372.4 K, 190000 kPa, Bellows volumetry | 1242
372.4 K, 200000 kPa, Bellows volumetry | 1244.9
373.15 K, 101.33 kPa, Vibrating tube method | 1168.1
391.9 K, 10000 kPa, Bellows volumetry | 1161.7
391.9 K, 20000 kPa, Bellows volumetry | 1166.8
391.9 K, 30000 kPa, Bellows volumetry | 1171.8
391.9 K, 40000 kPa, Bellows volumetry | 1176.6
391.9 K, 50000 kPa, Bellows volumetry | 1181.2
391.9 K, 60000 kPa, Bellows volumetry | 1185.6
391.9 K, 70000 kPa, Bellows volumetry | 1189.9
391.9 K, 80000 kPa, Bellows volumetry | 1194
391.9 K, 90000 kPa, Bellows volumetry | 1198
391.9 K, 100000 kPa, Bellows volumetry | 1201.8
391.9 K, 110000 kPa, Bellows volumetry | 1205.6
391.9 K, 120000 kPa, Bellows volumetry | 1209.1
391.9 K, 130000 kPa, Bellows volumetry | 1212.7
391.9 K, 140000 kPa, Bellows volumetry | 1216.1
391.9 K, 150000 kPa, Bellows volumetry | 1219.5
391.9 K, 160000 kPa, Bellows volumetry | 1222.8
391.9 K, 170000 kPa, Bellows volumetry | 1226
391.9 K, 180000 kPa, Bellows volumetry | 1229.1
391.9 K, 190000 kPa, Bellows volumetry | 1232.2
391.9 K, 200000 kPa, Bellows volumetry | 1235.3

— the NIST ThermoML archive (doi:10.1016/j.jct.2016.09.013)
